Laboratory results from article PMC10539501 (Nature Communications, 2023).
Blank lines part the entries; values can stand above or below the compound they belong to. Starred links: 1 amine or outer side, 2 acyl side, 3 side chain; linkers in the order of their positions; H or OH if unused. Non-standard residues stand in square brackets, D forms with d. Residues, ends and D or L forms follow the SMILES beside them. X1 = CC(C)C[C@H](NC(=S)[C@H](Cc1ccc(O)cc1)N[*:1])C(=O)[*:2]; X9 = O=C([C@@H]1CCCN1C(=S)[C@H](Cc1ccccc1)N[*:1])[*:2]; NMeL = CN[C@@H](CC(C)C)C(=O)O

Experiments:
[1] = PAMPA passive permeability; format: in vitro ADME;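 also: passive permeability across an artificial membrane in 96-well pre-coated PAMPA plates, which lack transporters and efflux systems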
Experimental: Encouraged by this, the passive permeability of the analogs was evaluated using an artificial membrane (PAMPA), which measures permeability of compounds in the absence of transporters and efflux systems[32].
96-well BD Corning® pre-coated PAMPA plates were used following the supplier’s protocol, details in Supplementary Information.

[2] = format: physicochemical
in vivo [3] = settings: male, Wistar, rat
Experimental: (§1) All animals were housed individually in the animal facility at Anthem Biosciences Pvt. Ltd and were acclimatized for 3 days. All animals were fasted overnight before dosing, whereas access to water was provided ad libitum. Peptides were administered orally and via s.c. route and blood samples were collected at different time points through a jugular vein catheter.

in vitro [4] = settings: both, human, plasma
Experimental: (§2) Blood was freshly drawn from three healthy adults, two male and one person of 26–28 year old. […] The plasma was separated by centrifugation. […] For checking metabolic stability, the required volume of plasma was pre-incubated at 37 °C prior to the experiment for 2 min, followed by spiking with the peptides. At different time points, plasma was aliquoted. The supernatant was separated and used for RP-HPLC quantification. Rapid Equilibrium Dialysis (RED) assay was performed to assess the plasma protein binding of the peptides following the supplier’s protocol.

[5] = format: physicochemical; remark: listed apart in the source
From the text: Since reduced solvation of S also contributes to the lipophilicity of the thioamidated peptides, we sought to estimate the global desolvation of the macrocyclic peptides, which is affected by solvation of both N(H) and C(S). […] Thus, we evaluated the desolvation potential of the cyclic peptides by determining the distribution coefficients in heptane-ethylene glycol (logDh/e), a solvent system that provides an experimental estimate of desolvation or hydrogen bond potential[38].

[6] = HDX of amide protons by NMR in DMSO-d6:D2O (8:2); settings: HDX by NMR, 20% D2O in DMSO-d6
Experimental: (§3) As hydrogen bonding and solvation of NH groups play an important role in the permeability of macrocycles, we determined the solvent accessibility of individual amide protons in 10 and 10a–10f by hydrogen-deuterium exchange (HDX) through NMR spectroscopy (Figs. 2a–c).
(§4) Spectra were recorded on a Bruker AV 500 MHz spectrometer at 25 °C.

[7] = Retention in hydrophobic C18 column by HPLC; settings: Supplementary Fig 3d, logD7.4 vs tR
pepsin [8] = target: T1, pepsin (Sus scrofa, UniProt P00791); assay: in vitro; settings: simulated gastric fluid, pH 1.2
T1 sequence (P00791 60-385): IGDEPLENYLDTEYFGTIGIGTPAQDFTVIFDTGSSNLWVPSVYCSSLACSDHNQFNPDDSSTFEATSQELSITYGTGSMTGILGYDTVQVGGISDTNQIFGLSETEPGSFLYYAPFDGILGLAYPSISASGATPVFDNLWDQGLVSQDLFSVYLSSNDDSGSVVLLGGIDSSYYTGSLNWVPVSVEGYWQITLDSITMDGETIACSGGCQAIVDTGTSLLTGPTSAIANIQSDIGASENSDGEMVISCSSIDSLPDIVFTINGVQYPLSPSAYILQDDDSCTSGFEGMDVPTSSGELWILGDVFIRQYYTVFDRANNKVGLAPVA
Experimental: (§5) A stability assessment of the peptides was done in simulated gastric (SGF) and intestinal (SIF) fluids and human liver microsomes. The degradation kinetics of the aliquoted samples at desired time points were analyzed through RP-HPLC.

[9] = Octanol-water distribution coefficient (logD7.4); settings: octanol-water, pH 7.4; value plotted against PAMPA (Supplementary Fig 12)
Caco-2 cells = assay: in vitro; format: in vitro ADME, human; settings: Caco-2
Experimental: (§6) The Caco-2 cell (HTB-37^TM from ATCC, procured from NCCS, Pune) monolayer was washed and pre-incubated at 37 °C and 5% CO2 for 30 min with HBSS-HEPES buffer containing 1% DMSO prior to experimentation. The assay was performed 21 days post-seeding of cells. TEER values were measured before starting and after the completion of the assay. Acceptor and donor well concentrations of the peptides and controls were assessed through LC-MS/MS.

in vitro [10] = format: in vitro ADME, human
Experimental: as §6

pepsin [11] = target: T1, pepsin; settings: pH 1.2
Experimental: as §5

[12] = HDX of amide protons by NMR in CDCl3:CD3OD (8:2)
Experimental: as §3, §4

physchem = settings: pH 7.4
[13] = rat, in vivo, po, 10 mg/kg
Experimental: as §1

in vitro [14] = settings: pig, simulated intestinal fluid
in vitro [15] = settings: human, microsomes
Experimental: as §5

in vitro [16] = settings: both, human, plasma; remark: listed apart in the source
Experimental: as §2

SSTR5 = target: T2, SSTR5 (Homo sapiens, UniProt P35346); assay: GloSensor assay, inhibition of forskolin-induced cAMP production; format: cell-based
T2 construct: expressed in transfected cells; host or cells: HEK-293T (CRL-3216)
T2 sequence (P35346 whole entry): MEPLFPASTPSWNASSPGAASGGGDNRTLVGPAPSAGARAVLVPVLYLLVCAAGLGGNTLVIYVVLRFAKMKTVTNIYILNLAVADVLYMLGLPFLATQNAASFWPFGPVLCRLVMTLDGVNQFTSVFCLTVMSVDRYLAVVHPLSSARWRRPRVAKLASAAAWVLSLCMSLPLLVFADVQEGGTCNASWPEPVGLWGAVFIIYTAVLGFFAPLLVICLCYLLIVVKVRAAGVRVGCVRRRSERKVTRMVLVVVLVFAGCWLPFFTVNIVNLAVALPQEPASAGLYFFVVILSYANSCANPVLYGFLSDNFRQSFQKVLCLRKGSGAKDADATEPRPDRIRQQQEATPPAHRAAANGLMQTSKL
Experimental: HEK-293T cells (CRL-3216 from ATCC, procured from NCCS, Pune) were co-transfected with human somatostatin receptor subtypes 2 & 5, plasmid cDNA, and cAMP biosensor (pGloSensorTM-22F plasmid; Promega Corp.) using PEImax. Ligand incubation was followed by the addition and incubation of forskolin (FSK) to the plate. Dose-dependent inhibition of forskolin-induced cAMP production by the peptide ligands was measured using a luminescence plate reader. An elaborate description of the assay setup has been provided in Supplementary Information.

SSTR2 = target: T3, SSTR2 (Homo sapiens, UniProt P30874); assay: as above; format: cell-based; settings: read-out: IC50 sstr2
T3 construct: expressed in transfected cells; host or cells: HEK-293T (CRL-3216)
T3 sequence (P30874 whole entry): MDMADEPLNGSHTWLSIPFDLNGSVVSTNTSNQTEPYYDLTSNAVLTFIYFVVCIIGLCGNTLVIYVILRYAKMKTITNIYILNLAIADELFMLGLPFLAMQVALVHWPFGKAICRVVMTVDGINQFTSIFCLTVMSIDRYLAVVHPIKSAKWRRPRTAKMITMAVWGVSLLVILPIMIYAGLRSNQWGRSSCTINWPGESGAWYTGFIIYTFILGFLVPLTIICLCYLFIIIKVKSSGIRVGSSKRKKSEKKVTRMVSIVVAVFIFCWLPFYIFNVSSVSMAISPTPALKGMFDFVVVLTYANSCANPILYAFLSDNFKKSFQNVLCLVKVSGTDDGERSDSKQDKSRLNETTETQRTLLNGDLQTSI

in vivo [17] = settings: male, rat, sc
Experimental: Subsequently, we selected 13a, 13b, 13d, and 13e for assessing their plasma exposure post single dose subcutaneous injection into male Sprague Dawley rats.
as §1

SIF = settings: up to 72 hours
[18] = 20% CD3OD in CDCl3, % remaining after 24 hours
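For Papp A-B avg (second block) in this document: Caco-2 monolayers used 21 days after seeding in HBSS-HEPES buffer with 1% DMSO, donor and acceptor levels quantified by LC-MS/MS, TEER checked before and after.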
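For Papp A-B set 1 (second block) in this document: Caco-2 monolayers used 21 days after seeding in HBSS-HEPES buffer with 1% DMSO, donor and acceptor levels quantified by LC-MS/MS, TEER checked before and after.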
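For Papp A-B set 2 (second block) in this document: Caco-2 monolayers used 21 days after seeding in HBSS-HEPES buffer with 1% DMSO, donor and acceptor levels quantified by LC-MS/MS, TEER checked before and after.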
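For Papp B-A avg (second block) in this document: Caco-2 monolayers used 21 days after seeding in HBSS-HEPES buffer with 1% DMSO, donor and acceptor levels quantified by LC-MS/MS, TEER checked before and after.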

Experimental for human liver microsomes: as §5
Experimental for plasma proteins: as §2

Compound: cyclo(-D-Trp^1-Lys-Thr-Phe-Pro-Phe^6-)
cleaved bond (SIF): Lys2-Thr3, major, 1 hour

Compound: cyclo(D-Trp^1-Lys'-Thr-Phe-Pro-Phe^6)
not cleaved (SIF): prevented the degradation of the macrocycle over 72 h

Compound: cyclo(D-Trp^1-Lys-Thr-Phe-Pro-Phe^6)
not cleaved (SIF): prevented the degradation of the macrocycle over 72 h

The remaining lines, values ahead:

Pe Avg [1]: 74 nm/s
Pe set1 [1]: 74.3 nm/s
Pe set2 [1]: 63.6 nm/s
Pe set3 [1]: 82.9 nm/s
Papp ([1]; Pe Avg): 74 nm/s
Protein binding set1 (plasma proteins): 100%
Protein binding set2 (plasma proteins): 95%
Protein binding set3 (plasma proteins): 100%
% solubility [2]: 14%
AUC(0-t) (in vivo [3]; iv): 2.28 µg·h/mL
Cmax (in vivo [3]; iv): 2.66 µg/mL
MRT (in vivo [3]; iv): 1.5 h
Vd (in vivo [3]; iv): 0.7 L/kg
clearance (in vivo [3]; iv): 0.45 L/h/kg
bioavailability (in vivo [3]; po): 1.6%
AUC(0-t) (in vivo [3]; po, 10 mg/kg): 0.359 µg·h/mL
Cmax (in vivo [3]; po, 10 mg/kg): 0.0472 µg/mL
MRT (in vivo [3]; po, 10 mg/kg): 5.9 h
level at 3 h (in vivo [3]; po, 10 mg/kg): 0.0326 µg/mL
half-life (in vitro [4]): 26 h
remaining at 1 h (in vitro [4]): 90%
remaining at 3 h (in vitro [4]): 82%
remaining at 5 h (in vitro [4]): 84%
remaining at 7 h (in vitro [4]): 76%
remaining at 9 h (in vitro [4]): 67%
remaining at 12 h (in vitro [4]): 61%
remaining at 24 h (in vitro [4]): 50%
remaining at 36 h (in vitro [4]): 43%
remaining at 48 h (in vitro [4]): 32%
remaining at 60 h (in vitro [4]): 25%
remaining at 72 h (in vitro [4]): 12%
logD heptane ethylene glycol [5]: 0.94
Half-life of D-Leu1 amide proton (HDX) [6]: 0.767 h
Half-life of Leu2 amide proton (HDX) [6]: 0.6 h
Half-life of Leu3 amide proton (HDX) [6]: 3.18 h
Half-life of Leu6 amide proton (HDX) [6]: 10.8 h
Half-life of Tyr5 amide proton (HDX) [6]: 0.583 h
tR [7]: 13.5 min
half-life (pepsin [8]): 3.83 h
remaining at 5 min (pepsin [8]): 82%
remaining at 10 min (pepsin [8]): 78%
remaining at 20 min (pepsin [8]): 73%
remaining at 0.5 h (pepsin [8]): 66%
remaining at 1 h (pepsin [8]): 61%
remaining at 2 h (pepsin [8]): 58%
remaining at 4 h (pepsin [8]): 49%
remaining at 8 h (pepsin [8]): 41%
remaining at 12 h (pepsin [8]): 35%
remaining at 24 h (pepsin [8]): 24%
logD7.4 [9]: 1.65
Papp A-B avg (second block) (Caco-2 cells): 20.1 nm/s
Papp A-B set 1 (second block) (Caco-2 cells): 20.6 nm/s
Papp A-B set 2 (second block) (Caco-2 cells): 19.6 nm/s
Papp B-A avg (second block) (Caco-2 cells): 376 nm/s
Papp B-A set 1 (second block) (Caco-2 cells): 386 nm/s
Papp B-A set 2 (second block) (Caco-2 cells): 367 nm/s
Papp A→B (in vitro [10]; Caco-2, Papp A-B + Elacridar avg): 61 nm/s
Papp A→B (in vitro [10]; Caco-2, Papp A-B avg): 20.1 nm/s
Papp B→A (in vitro [10]; Caco-2, Papp B-A + Elacridar avg): 95 nm/s
Papp B→A (in vitro [10]; Caco-2, Papp B-A avg): 376 nm/s
Half lives (SGF) set1 (pepsin [11]): 259 min
Half-life of D-Leu1 amide proton (HDX) ([12]; 20% CD3OD in CDCl3): 0.167 h
Half-life of Leu2 amide proton (HDX) ([12]; 20% CD3OD in CDCl3): 2 min
Half-life of Leu3 amide proton (HDX) ([12]; 20% CD3OD in CDCl3): > 24 h
Half-life of Leu6 amide proton (HDX) ([12]; 20% CD3OD in CDCl3): > 24 h
Half-life of Tyr5 amide proton (HDX) ([12]; 20% CD3OD in CDCl3): 3.13 h
% intact NH, Leu3 [12, 18]: 66%
% intact NH, Leu6 [12, 18]: 70%
logD (physchem): 1.45
AUClast p.o [13]: 0.3595 µg·h/mL
time over which the peptide is detectable in plasma [13]: ≥ 8 h
half-life (in vitro [14]): 4.02 h
remaining at 10 min (in vitro [14]): 76.6%
remaining at 0.5 h (in vitro [14]): 68.3%
remaining at 1 h (in vitro [14]): 62.8%
remaining at 2 h (in vitro [14]): 58.3%
remaining at 4 h (in vitro [14]): 49.7%
remaining at 8 h (in vitro [14]): 40.9%
remaining at 12 h (in vitro [14]): 27.5%
remaining at 24 h (in vitro [14]): 19.9%
microsomal CLint (in vitro [15]): 56.5 µL/min/mg
remaining at 5 min (in vitro [15]): 97%
remaining at 10 min (in vitro [15]): 70%
remaining at 20 min (in vitro [15]): 55%
remaining at 0.5 h (in vitro [15]): 47%
remaining at 0.75 h (in vitro [15]): 37%
remaining at 1 h (in vitro [15]): 27%
Half lives (human liver microsomes): 24.8
fraction unbound (in vitro [16]): 0.01
Compound: CC(C)C[C@@H]1NC(=O)[C@@H](CC(C)C)NC(=O)[C@H](CC(C)C)NC(=S)[C@H](Cc2ccc(O)cc2)NC(=O)[C@H]2CCCN2C(=O)[C@H](CC(C)C)NC1=O [10e] (cyclo(LL[dP][X1][dL]))

Papp ([1]; Pe Avg): 90.7 nm/s
AUC(0-t) (in vivo [3]; iv): 0.212 µg·h/mL
Cmax (in vivo [3]; iv): 0.435 µg/mL
MRT (in vivo [3]; iv): 0.4 h
Vd (in vivo [3]; iv): 2.3 L/kg
clearance (in vivo [3]; iv): 4.77 L/h/kg
bioavailability (in vivo [3]; po): 1.2%
AUC(0-t) (in vivo [3]; po, 10 mg/kg): 0.0259 µg·h/mL
Cmax (in vivo [3]; po, 10 mg/kg): 0.0131 µg/mL
MRT (in vivo [3]; po, 10 mg/kg): 1.3 h
level at 3 h (in vivo [3]; po, 10 mg/kg): 0.0032 µg/mL
half-life (in vitro [4]): 18 h
remaining at 2 h (in vitro [4]): 89%
remaining at 4 h (in vitro [4]): 77%
remaining at 8 h (in vitro [4]): 68%
remaining at 16 h (in vitro [4]): 56%
remaining at 24 h (in vitro [4]): 30%
remaining at 48 h (in vitro [4]): 13%
remaining at 72 h (in vitro [4]): 3.27%
remaining at 2 min (pepsin [8]): 97%
remaining at 10 min (pepsin [8]): 89%
remaining at 20 min (pepsin [8]): 79%
remaining at 0.5 h (pepsin [8]): 67%
remaining at 1 h (pepsin [8]): 57%
remaining at 2 h (pepsin [8]): 26%
remaining at 4 h (pepsin [8]): 16%
remaining at 8 h (pepsin [8]): 8%
remaining at 12 h (pepsin [8]): 3%
Half lives (SGF) Avg (pepsin [11]): 65.5 min
Half lives (SGF) set1 (pepsin [11]): 52 min
logD (physchem): 1.46
Fold Change of AUClast p.o [13]: 29
half-life (in vitro [14]): 0.933 h
remaining at 10 min (in vitro [14]): 71%
remaining at 0.5 h (in vitro [14]): 63%
remaining at 1 h (in vitro [14]): 47%
remaining at 2 h (in vitro [14]): 27%
remaining at 4 h (in vitro [14]): 16%
remaining at 8 h (in vitro [14]): 2.66%
remaining at 12 h (in vitro [14]): 1%
microsomal CLint (in vitro [15]): 49 µL/min/mg
remaining at 2 min (in vitro [15]): 99%
remaining at 10 min (in vitro [15]): 94%
remaining at 20 min (in vitro [15]): 65%
remaining at 0.5 h (in vitro [15]): 49%
remaining at 0.75 h (in vitro [15]): 27%
remaining at 1 h (in vitro [15]): 13%
Half lives (human liver microsomes): 28.7
fraction unbound (in vitro [16]): 0.3
Compound: CC(C)C[C@@H]1NC(=O)[C@H](Cc2ccc(O)cc2)NC(=O)[C@H]2CCCN2C(=O)[C@H](CC(C)C)NC(=O)[C@H](CC(C)C)N(C)C(=O)[C@@H](CC(C)C)NC1=O [10h] (cyclo(L[dL][NMeL]L[dP]Y))

Papp ([1]; Pe): 22.9 nm/s
t1/2 in human blood plasma: 42 h
IC50 (SSTR5): > 10 µM
IC50 (SSTR2): 0.0203 ± 0.0119 µM
half-life (in vitro [4]): 42 h
logD heptane ethylene glycol [5]: -0.94
level at 0.5 h (in vivo [17]; Sprague Dawley): 0.092 µg/mL
level at 1 h (in vivo [17]; Sprague Dawley): 0.077 µg/mL
half-life (in vivo [17]; Sprague-Dawley): 1.1 ± 0.4 h
logD (physchem): -0.84
fraction unbound (in vitro [16]): 0.11
Compound: C[C@@H](O)[C@@H]1NC(=O)[C@H](CCCCN)NC(=O)[C@@H](Cc2c[nH]c3ccccc23)NC(=O)[C@H](Cc2ccccc2)NC(=O)[C@@H]2CCCN2C(=S)[C@H](Cc2ccccc2)NC1=O [13d] (cyclo(F[dW]KT[X9]))
